# Where “and” joins values, the source holds several entries; their conditions need not be identical. Equal entries are not always repeated.
# What was measured:
# [1] = test system: Clostridium tyrobutyricum; assay: Serum bottle batch fermentation of Clostridium tyrobutyricum on fructose, optical density; format: cell-based; conditions: duplicates A and B; for O.D. Response: Table 17
# Protocol: Ethyl 3-(trifluoromethyl)benzoate is evaluated in a series of batch fermentations to determine the growth response of butyrogens to the presence of this compound at varying concentrations. The batch fermentations are conducted by anoxically filling 100 mL serum bottles with 15 mL of media having the composition given in Tables 12 and 13. About 0.15 mL of a 50% w/w solution of fructose in water (final fructose concentration about 5 g/L) is provided in the bottles. Duplicate runs are conducted for each concentration.
# (§1) Each bottle is inoculated with 1.5 mL of seed culture inoculum of the strict butyrogen Clostridium tyrobutyricum, which has an OD of about 0.40 (which upon a 10 times dilution provides a starting OD for the fermentation of about 0.04). The bottles are maintained at a temperature of 37° C. Two hours after inoculation of the bottles with the bacteria, the compound is added to different bottles as a solution in 50 μL of N-methylpyrrolidone in the amounts indicated in Table 15. The fermentation process is allowed to progress at 37° C. At selected intervals of time, bacterial growth is measured by reading the optical density (OD) of the fermentation liquid. Optical density is measured by anoxically removing an aliquot of fermentation liquid and adding it to a disposable cuvette. OD's ranging between 0.01 and 0.4 are measured directly, while OD's greater than 0.4 are measure after performing a 1/10 dilution with water.
# In this example ethyl 4,4,4-trifluoro-3-(trifluoromethyl)crotonate and ethyl 3-trifluoromethyl-4-methoxybenzoate are evaluated by batch fermentation. The batch fermentations are conducted by anoxically filling 100 mL serum bottles with 15 mL of media having the composition given in Tables 12 and 13. About 0.15 mL of a 50% w/w solution of fructose in water (final fructose concentration about 5 g/L) is provided in the bottles. Duplicate runs are conducted for each concentration.
# as §1, with “of about 0.42 (which upon” for “of about 0.40 (which upon”, “of about 0.042). The bottles” for “of about 0.04). The bottles”, “in Table 16 and 17. The fermentation” for “in Table 15. The fermentation”, “0.4 are measured after performing” for “0.4 are measure after performing”
# acyl-CoA dehydrogenases = assay: In vitro acyl-CoA dehydrogenase ferrocenium assay with C. tyrobutyricum cell-free extract; format: biochemical; conditions: 0.5 to 10 mM compound; rate of ferrocenium reduction at 300 nm
# Protocol: Lehman, et al., in An Acyl-Coenzyme A Dehydrogenase Assay Utilizing the Ferricenium Ion, Analytical Biochemistry 186, pages 280-284 (1990), disclose an in vitro assay screening technique for acyl-CoA dehydrogenases for determining enzyme deficiencies in children. An adaptation of this technique was explored as a potential screening method for ascertaining potential butyrogen inhibitors. An aqueous assay liquor is prepared such that each 1 milliliter sample contains 50 mM of TrisHCl buffer (pH 7.6); 0.05 mM of butyryl-CoA; 5 micromoles of FAD (flavin adenine dinucleotide) and 0.4 mM of ferrocenium. Whole cells of C. tyrobutyricum are lysed and are added to the assay liquor. […] The abbreviation mM stands for millimolar. To assure metabolic consistency among the samples a master batch of C. tyrobutyricum is prepared and harvested at the early log growth stage (approximate O.D. of between about 0.5 and 0.7). The master batch fermentation broth is centrifuged and rinsed with 50 mM TrisHCl buffer (pH 7.6), centrifuged and reconstituted with 50 mM TrisHCl buffer (pH 7.6) to be 10 times more concentrated than the original master batch. Aliquots of about 0.5 milliliter are placed into cryogenic vials (about 1.8 milliliter capacity) and frozen at −80° C. until needed. When needed, a vial is placed in an anoxic Coy chamber and allowed to thaw to room temperature. Once thawed, the cells are added to a 15 mL centrifuge tube and diluted with 0.5 mL of a 2 mg/mL solution of lysozyme (purchased from Aldrich) in 50 mM Tris-HCl (final concentration of lysozyme is about 1 mg/mL). The centrifuge tube is inverted 5 times, removed from the Coy chamber and allowed to incubate at 37° C. for 30 minutes. […] The centrifuge tube is vortexed in the Coy chamber for about 30 seconds, removed from the chamber and centrifuged for 15 minutes at 4000 rpm and 4° C. The tube is returned to the chamber and the cell-free extract (supernatant) is used to prepare the above described samples. The samples are analyzed at various times by absorbance spectroscopy at 300 nm using a Thermo Scientific Evolution 300 UV/Vis spectrophotometer with a 7-cuvette carousel and Starna quartz cuvettes with a septum cap to determine the amount of reduction of ferrocenium. The sample is at laboratory temperature and is maintained under anaerobic conditions. Typically, the absorbance is measured over a period of about 10 to 20 minutes which is sufficient time for the absorbance to stop changing. A linear slope of the rate of change in absorbance during the period that the absorbance is changing is determined using Microsoft Excel® 2010 linear regression to generate a straight line from the data points. The more gradual the slope, the better inhibition because the enzyme is slower at reducing the ferrocenium in the assay sample. A dose-response curve is then determined for each compound by plotting the linear slope against the respective compound concentration. A linear slope is then determined for each compound using Microsoft Excel® 2010 linear regression to generate a straight line from the data points. The steeper the dose-response slope, the better the inhibition because the increased concentration of the compound causes more of a difference in enzyme activity. The dose-response slope generally has a broad standard of deviation due to experimental imprecision and slope determinations.
# [2] = test system: Clostridium tyrobutyricum; assay: Butyric acid by gas chromatography in Clostridium tyrobutyricum batch fermentations; format: cell-based; conditions: for Butyrate Production: Table 19, duplicates A and B
# Protocol: The concentration of butyric acid is determined by gas chromatography for several of the above samples at the stated points in time. The butyrate production is calculated based upon peak area calculations generated by the gas chromatograph. At 11 hours, the concentration of butyric acid for each of the controls is about 0.95 gram per liter, and the concentration of butyric acid for the samples containing 500 ppm of the inhibitor are about 0.6 gram per liter.
# The concentration of butyric acid is determined by gas chromatography using the procedure set forth in Example 13. The control is reported only in Table 18.
smiles,measurement,setting,value
CCOC(=O)c1cccc(C(F)(F)F)c1 [Ethyl 3-trifluormethylbenzoate],O.D. Response to Varying Inhibitor Concentrations,"[1]; 500 ppm, 0 Hours, added 2 h after inoculation",0.04
same,O.D. Response to Varying Inhibitor Concentrations,"[1]; 500 ppm, 2 Hours, added 2 h after inoculation",0.09
same,O.D. Response to Varying Inhibitor Concentrations,"[1]; 500 ppm, 3.5 Hours",0.14
same,O.D. Response to Varying Inhibitor Concentrations,"[1]; 500 ppm, 5.25 Hours, listed as Ethyl 3-(trifluoromethyl)benzoate",0.21 and 0.23
same,O.D. Response to Varying Inhibitor Concentrations,"[1]; 500 ppm, 11 Hours, listed as Ethyl 3-(trifluoromethyl)benzoate",0.90 and 0.89
same,O.D. Response to Varying Inhibitor Concentrations,"[1]; 500 ppm, 20.5 Hours, listed as Ethyl 3-(trifluoromethyl)benzoate",1.53 and 1.44
same,O.D. Response to Varying Inhibitor Concentrations,"[1]; 1000 ppm, 0 Hours, added 2 h after inoculation",0.04
same,O.D. Response to Varying Inhibitor Concentrations,"[1]; 1000 ppm, 2 Hours, added 2 h after inoculation",0.09
same,O.D. Response to Varying Inhibitor Concentrations,"[1]; 1000 ppm, 3.5 Hours",0.15
same,O.D. Response to Varying Inhibitor Concentrations,"[1]; 1000 ppm, 5.25 Hours, listed as Ethyl 3-(trifluoromethyl)benzoate",0.21 and 0.22
same,O.D. Response to Varying Inhibitor Concentrations,"[1]; 1000 ppm, 11 Hours, listed as Ethyl 3-(trifluoromethyl)benzoate",0.90 and 0.87
same,O.D. Response to Varying Inhibitor Concentrations,"[1]; 1000 ppm, 20.5 Hours, listed as Ethyl 3-(trifluoromethyl)benzoate",1.42 and 1.37
same,Dose-Response Slope,acyl-CoA dehydrogenases,9
same,Concentration of butyric acid,"[2]; 500 ppm, at 11 hours",about 0.6 gram per liter
CCOC(=O)c1ccc(OC)c(C(F)(F)F)c1 [ethyl 3-trifluoromethyl-4-methoxybenzoate],O.D. Response,"[1]; 5 mM, 0 Hours, added 2 h after inoculation",0.42
same,O.D. Response,"[1]; 5 mM, 2 Hours, added 2 h after inoculation",0.11 and 0.12
same,O.D. Response,"[1]; 5 mM, 4.5 Hours",0.20 and 0.18
same,O.D. Response,"[1]; 5 mM, 6 Hours",0.16 and 0.10
same,O.D. Response,"[1]; 5 mM, 24 Hours",1.23 and 0.91
same,O.D. Response,"[1]; 10 mM, 0 Hours, added 2 h after inoculation",0.42
same,O.D. Response,"[1]; 10 mM, 2 Hours, added 2 h after inoculation",0.11
same,O.D. Response,"[1]; 10 mM, 4.5 Hours",0.24 and 0.23
same,O.D. Response,"[1]; 10 mM, 6 Hours",0.12 and 0.13
same,O.D. Response,"[1]; 10 mM, 24 Hours",1.22 and 1.19
same,Butyrate Production,"[2]; 5 mM, 6 Hours",0.19 grams per liter and 0.10 grams per liter
same,Butyrate Production,"[2]; 10 mM, 2 Hours",0.03 grams per liter
same,Butyrate Production,"[2]; 10 mM, 4.5 Hours",0.69 grams per liter and 0.67 grams per liter
same,Butyrate Production,"[2]; 10 mM, 6 Hours",0.11 grams per liter and 0.10 grams per liter
same,Butyrate Production,"[2]; 10 mM, 24 Hours",0.19 grams per liter and 0.17 grams per liter
